Measured values published in patent publication US7135299B2, “Catalase-inactivating compounds and the use thereof” (priority 2001, dated 2006).

Assays:
[1] = target: T1, catalase from ox liver (as active endogenous catalase) (Bos taurus, UniProt P00432); assay: Catalase inactivation test: oxygen evolution from hydrogen peroxide measured as pressure in a closed tube, active endogenous catalase; type: biochemical; conditions: 35 units of catalase from ox liver in 1 ml sample, 7 ml solution of the title compound, 0.23 g hydrogen peroxide 30%, 15 minutes at room temperature
T1 construct: catalase from ox liver (as active endogenous catalase); from tissue; host or cells: ox liver
T1 sequence (P00432 2-527 limits assumed): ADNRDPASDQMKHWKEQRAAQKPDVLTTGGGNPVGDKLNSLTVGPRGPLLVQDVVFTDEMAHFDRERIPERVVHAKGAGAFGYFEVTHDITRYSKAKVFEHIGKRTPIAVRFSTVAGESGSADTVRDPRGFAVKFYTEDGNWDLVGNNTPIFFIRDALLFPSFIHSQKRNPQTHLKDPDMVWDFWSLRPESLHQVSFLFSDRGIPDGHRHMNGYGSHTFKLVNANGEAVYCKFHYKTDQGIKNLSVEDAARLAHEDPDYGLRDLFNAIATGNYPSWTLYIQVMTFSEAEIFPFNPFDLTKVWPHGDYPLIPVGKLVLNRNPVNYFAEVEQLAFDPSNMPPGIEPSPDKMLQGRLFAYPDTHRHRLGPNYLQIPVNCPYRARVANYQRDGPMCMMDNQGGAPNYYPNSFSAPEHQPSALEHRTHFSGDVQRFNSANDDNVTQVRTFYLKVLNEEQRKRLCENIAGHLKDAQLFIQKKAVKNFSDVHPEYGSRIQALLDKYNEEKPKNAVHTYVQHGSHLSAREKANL
Source text: (§1) The following reagents are provided: • catalase from ox liver (as active endogenous catalase) • catalase from Aspergillus niger (as active intracellular catalase) • catalase from microorganisms^(*) (as active intracellular catalase) • antifoam (RD® from Dow Corning) • hydrogen peroxide (Perhydrol® 30% from Merck) ^(*)various bacteria and/or fungi
(§2) Each sample contains in each case 35 units of catalase from ox liver or from Aspergillus niger or from microorganisms per ml of distilled water. The 1 ml sample is put in a 15 ml tube (Vacutainer® 16×125 mm from Becton Dickinson), and in each case 7 ml of the aforementioned solution of the title compound are added and mixed therewith (Vortex® Genie 2 mixer from Merck). Then 1 drop of said antifoam is added and mixing is repeated. Thereafter 0.23 g of said hydrogen peroxide is added, and the tube is immediately made gas-tight with a stopper made of chemical-resistant elastic plastic (Viton® from Du Pont de Nemours), briefly (for a few seconds) ventilated with the aid of a hollow needle (Ø1 mm hypodermic needle) piercing the stopper and, immediately thereafter, closed gas-tight again by withdrawing the hollow needle from the stopper. The tube which has been closed gas-tight is left to stand at room temperature for 15 minutes. […] The pressure in the tube is then measured (cf. the description hereinafter of the preferred pressure gage). […]

[2] = test system: catalase from Aspergillus niger / catalase from microorganisms (as active intracellular catalase); assay: Catalase inactivation test: oxygen evolution from hydrogen peroxide measured as pressure in a closed tube, active intracellular catalase; type: biochemical, Aspergillus niger; various bacteria and/or fungi; conditions: 35 units of catalase from Aspergillus niger or from microorganisms in 1 ml sample, 7 ml solution of the title compound, 0.23 g hydrogen peroxide 30%, 15 minutes at room temperature
Source text: as §1, §2

CH2═CH—COO—SO2—O—C12H25
catalase activity by oxygen evolution (pressure in the tube) [1]: the pressure in the tube does not increase | catalase activity by oxygen evolution (pressure in the tube) [2]: the pressure in the tube increases
